Laboratory results reported in paper PMC6445228, “Synthesis and biological evaluation of anti-Toxoplasma gondii activity of a novel scaffold of thiazolidinone derivatives” (Journal of Enzyme Inhibition and Medicinal Chemistry, 2017).
Where two headings read alike, the source gives them in different places.

Experiments:
[1] = system: T. gondii RH-2 F tachyzoites; experiment: Five-day growth inhibition assay (tachyzoite growth, colorimetric); format: cell-based, Toxoplasma gondii; settings: 120 h, T. gondii RH-2 F in HFF, three experiments; for IC50: read-out: IC50, median inhibitory concentration, a measure of tachyzoite inhibition; for IC90: read-out: IC90, concentration at which 90% of the tachyzoite growth is inhibited
Procedure: (§1) Using published methods[8]^,[19], all of the prepared N-substituted thiazolidinones derivatives were evaluated in vitro for (i) host cell cytotoxicity as well as for the ability to inhibit tachyzoite growth over a period of 5 days (Table 1), for (ii) the ability to inhibit tachyzoite invasion of host cells (Figure 1), and for (iii) the ability to inhibit intracellular tachyzoite replication (Figure 2).
(§2) Compounds were tested for the ability to inhibit in vitro tachyzoite (T. gondii RH-2 F (50839); ATCC, VA) and human foreskin fibroblast (HFF; ATCC) growth for 120 h using a published colorimetric assay[8]^,[19]. Stock solutions of all compounds were 10 mM in DMSO. Serial 0.5 log10 dilutions (320–0.032 μM) of each compound were tested. Data from three separate experiments were analysed and the IC50, IC90, and TD50 calculated using Calcusyn software (Biosoft, Cambridge, UK). The therapeutic index (TI), a measure of specific anti-T. gondii activity, was calculated with the formula shown under Table 1.
We explored the chemical space and the influence on the biological activity of different groups (substituted aromatic and bicyclic rings) at the lactam NH of the core nucleus. […] In the five-day growth inhibition assay, compounds were added only once, just before addition of tachyzoites, and thus were present for multiple cycles, up to 20, of parasite replication.

[2] = system: human foreskin fibroblast (HFF); experiment: Five-day growth inhibition assay, host cell cytotoxicity; settings: 120 h
Procedure: as §1, §2

[3] = HFF cells, top concentration 320 μM

Compound | IC50 ([1]; Toxoplasma gondii) [µM] | IC90 ([1]; Toxoplasma gondii) [µM] | TD50, median toxicity dose, a measure of cytotoxicity against host cells ([2]; human) [µM] | melting point [°C] | IC50 [1] [µM] | IC90 [1] [µM] | TD50, median toxicity dose, a measure of cytotoxicity against host cells [2, 3] [µM]
CCCCC(CC)=NN=C1SCC(=O)N1Cc1ccccc1[N+](=O)[O-] [Compound 1, 2-((Heptan-3-ylidene)hydrazono)-3-(2-nitrobenzyl)thiazolidin-4-one] | 20 | 111 | 236 | 67 to 69 |  |  | 
CC(=NN=C1SCC(=O)N1Cc1cccc([N+](=O)[O-])c1)c1cccs1 [Compound 5, 3-(3-Nitrobenzyl)-2-((1-(thiophen-2-yl)ethylidene)hydrazono)thiazolidin-4-one] | 52 | 171 | ≥320 | 165 to 170 |  |  | 
CC(=NN=C1SCC(=O)N1Cc1ccccc1Cl)c1ccc[cH-]1.[Fe+2].c1cc[cH-]c1 [Compound 21, 3-(2-Chlorobenzyl)-2-((1-(ferrocen-2-yl)ethylidene)hydrazono)thiazolidin-4-one] |  |  |  |  | 9 | 24 | ≥320
CCCCC(CC)=NN=C1SCC(=O)N1Cc1ccccc1Cl [Compound 19, 3-(2-Chlorobenzyl)-2-((heptan-3-ylidene)hydrazono)thiazolidin-4-one] | 39 | 183 | 95 |  |  |  | 
CCCCC(CC)=NN=C1SCC(=O)N1Cc1ccc(Cl)cc1 [Compound 25, 3-(4-Chlorobenzyl)-2-((heptan-3-ylidene)hydrazono)thiazolidin-4-one] | 51 | 131 | 244 |  |  |  | 
CC(=NN=C1SCC(=O)N1Cc1ccc(F)cc1)c1cccs1 [Compound 17, 3-(4-Fluorobenzyl)-2-((1-(thiophen-2-yl)ethylidene)hydrazono)thiazolidin-4-one] | 72 | 312 | ≥320 | 118 to 123 |  |  | 
CCCCC(CC)=NN=C1SCC(=O)N1Cc1cccc(Cl)c1 [Compound 22, 3-(3-Chlorobenzyl)-2-((heptan-3-ylidene)hydrazono)thiazolidin-4-one] | 19 | 106 | 165 |  |  |  | 
CCCCC(CC)=NN=C1SCC(=O)N1CN1C(=O)c2ccccc2C1=O [Compound 31, 2-((2-((Heptan-3-ylidene)hydrazono)-4-oxothiazolidin-3-yl)methyl)isoindoline-1,3-dione] | 88 | 402 | ≥320 |  |  |  | 
CCCCC(CC)=NN=C1SCC(=O)N1Cc1cccc(F)c1 [Compound 13, 3-(3-Fluorobenzyl)-2-((heptan-3-ylidene)hydrazono)thiazolidin-4-one] | 18 | 99 | 246 | 30 to 31 |  |  | 
CCCCC(CC)=NN=C1SCC(=O)N1Cc1ccccc1F [Compound 10, 3-(2-Fluorobenzyl)-2-((heptan-3-ylidene)hydrazono)thiazolidin-4-one] | 24 | 104 | 90 |  |  |  | 
O=C1C(O)=C([C@H]2CC[C@H](c3ccc(Cl)cc3)CC2)C(=O)c2ccccc21 [Atovaquone, reference compound] | 0.2 | 2 | 24 |  |  |  | 
CC(=NN=C1SCC(=O)N1Cc1ccc(Cl)cc1)c1cccs1 [Compound 26, 3-(4-Chlorobenzyl)-2-((1-(thiophen-2-yl)ethylidene)hydrazono)thiazolidin-4-one] | 81 | 211 | ≥320 | 146 to 151 |  |  | 
CC(=NN=C1SCC(=O)N1Cc1ccccc1F)c1cccs1 [Compound 11, 3-(2-Fluorobenzyl)-2-((1-(thiophen-2-yl)ethylidene)hydrazono)thiazolidin-4-one] | 25 | 103 | 82 | 80 to 85 |  |  | 
CCCCC(CC)=NN=C1SCC(=O)N1Cc1cccc2ccccc12 [Compound 28, 2-((Heptan-3-ylidene)hydrazono)-3-(naphthalen-1-ylmethyl)thiazolidin-4-one] | 37 | 138 | 271 |  |  |  | 
CCCCC(CC)=NN=C1SCC(=O)N1Cc1ccc(F)cc1 [Compound 16, 3–(4-Fluorobenzyl)-2-((heptan-3-ylidene)hydrazono)thiazolidin-4-one] | 29 | 107 | 192 |  |  |  | 
CC(=NN=C1SCC(=O)N1CN1C(=O)c2ccccc2C1=O)c1ccc[cH-]1.[Fe+2].c1cc[cH-]c1 [Compound 33, 2-((4-Oxo-2-((1-(ferrocen-2-yl)ethylidene)hydrazono)thiazolidin-3-yl)methyl)isoindoline-1,3-dione] |  |  |  |  | 82 | 286 | 138
CCCCC(CC)=NN=C1SCC(=O)N1Cc1cccc([N+](=O)[O-])c1 [Compound 4, 2-((Heptan-3-ylidene)hydrazono)-3–(3-nitrobenzyl)thiazolidin-4-one] | 44 | 138 | 68 |  |  |  | 
CC(=NN=C1SCC(=O)N1Cc1cccc(F)c1)c1cccs1 [Compound 14, 3-(3-Fluorobenzyl)-2-((1-(thiophen-2-yl)ethylidene)hydrazono)thiazolidin-4-one] | 45 | 147 | 178 | 84 to 85 |  |  | 
CC(=NN=C1SCC(=O)N1Cc1cccc(Cl)c1)c1cccs1 [Compound 23, 3-(3-Chlorobenzyl)-2-((1-(thiophen-2-yl)ethylidene)hydrazono)thiazolidin-4-one] | 51 | 256 | 147 | 129 to 131 |  |  | 
CC(=NN=C1SCC(=O)N1Cc1cccc(Cl)c1)c1ccc[cH-]1.[Fe+2].c1cc[cH-]c1 [Compound 24, 3-(3-Chlorobenzyl)-2-((1-(ferrocen-2-yl)ethylidene)hydrazono)thiazolidin-4-one] |  |  |  |  | 8 | 17 | ≥320
CCCCC(CC)=NN=C1SCC(=O)N1Cc1ccc([N+](=O)[O-])cc1 [Compound 7, 2-((Heptan-3-ylidene)hydrazono)-3-(4-nitrobenzyl)thiazolidin-4-one] | 32 | 128 | 98 |  |  |  | 
CC(=NN=C1SCC(=O)N1Cc1cccc([N+](=O)[O-])c1)c1ccc[cH-]1.[Fe+2].c1cc[cH-]c1 [Compound 6, 3-(3-Nitrobenzyl)-2-((1-(ferrocen-2-yl)ethylidene)hydrazono)thiazolidin-4-one] |  |  |  |  | 24 | 152 | ≥320
CC(=NN=C1SCC(=O)N1Cc1ccccc1Cl)c1cccs1 [Compound 20, 3-(2-Chlorobenzyl)-2-((1-(thiophen-2-yl)ethylidene)hydrazono)thiazolidin-4-one] | 34 | 112 | 84 | 100 to 102 |  |  | 
